# Measured values: ChEMBL document CHEMBL1201862, “PubChem BioAssay data set” (2004)
#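 In this assay, cells in 96-well plates receive the compound at five concentrations for 48 hours. Endpoints are linearly interpolated between the surrounding concentrations. The concentration for 50% growth inhibition is given as GI50.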 Activity calls are given as the source filed them. Rule as the data show it: active = GI50 up to about 1.1 µM and inactive = higher.
# What was measured:
# Assay in all cases: growth of human tumour cells (NCI), 48 h
# 786-0 = test system: 786-0
# A498 = test system: A498
# A549 = test system: A549
# ACHN = test system: ACHN
# BT-549 = test system: BT-549
# CAKI-1 = test system: CAKI-1
# COLO 205 = test system: COLO 205
# DU-145 = test system: DU-145
# EKVX = test system: EKVX
# HCC 2998 = test system: HCC 2998
# HCT-116 = test system: HCT-116
# HCT-15 = test system: HCT-15
# HL-60 = test system: HL-60
# HOP-62 = test system: HOP-62
# HOP-92 = test system: HOP-92
# HT-29 = test system: HT-29
# Hs-578T = test system: Hs-578T
# IGROV-1 = test system: IGROV-1
# K562 = test system: K562
# KM12 = test system: KM12
# LOX IMVI = test system: LOX IMVI
# M14 = test system: M14
# MCF7 = test system: MCF7
# MDA-MB-231 = test system: MDA-MB-231
# MDA-MB-435 = test system: MDA-MB-435
# MDA-N = test system: MDA-N
# MOLT-4 = test system: MOLT-4
# Malme-3M = test system: Malme-3M
# NCI-H226 = test system: NCI-H226
# NCI-H23 = test system: NCI-H23
# NCI-H460 = test system: NCI-H460
# NCI-H522 = test system: NCI-H522
# NCI/ADR-RES = test system: NCI/ADR-RES
# OVCAR-3 = test system: OVCAR-3
# OVCAR-4 = test system: OVCAR-4
# OVCAR-5 = test system: OVCAR-5
# OVCAR-8 = test system: OVCAR-8
# PC-3 = test system: PC-3
# RPMI-8226 = test system: RPMI-8226
# RXF 393 = test system: RXF 393
# SF-268 = test system: SF-268
# SF-295 = test system: SF-295
# SK-MEL-28 = test system: SK-MEL-28
# SK-MEL-2 = test system: SK-MEL-2
# SK-MEL-5 = test system: SK-MEL-5
# SK-OV-3 = test system: SK-OV-3
# SN12C = test system: SN12C
# SNB-19 = test system: SNB-19
# SNB-75 = test system: SNB-75
# SW-620 = test system: SW-620
# T47D = test system: T47D
# TK-10 = test system: TK-10
# U-251 = test system: U-251
# UACC-257 = test system: UACC-257
# UACC-62 = test system: UACC-62
# UO-31 = test system: UO-31
# CCRF-CEM = test system: CCRF-CEM
# SF-539 = test system: SF-539
smiles,measurement,setting,value
O=C(NCC1Nc2ccncc2S(=O)(=O)N1)c1ccc(Br)cc1 (centres undefined),GI50,786-0,> 100000 nM (inactive)
same,GI50,A498,> 100000 nM (inactive)
same,GI50,A549,> 100000 nM (inactive)
same,GI50,ACHN,> 100000 nM (inactive)
same,GI50,BT-549,69700 nM (inactive)
same,GI50,CAKI-1,> 100000 nM (inactive)
same,GI50,COLO 205,> 100000 nM (inactive)
same,GI50,DU-145,77600 nM (inactive)
same,GI50,EKVX,> 100000 nM (inactive)
same,GI50,HCC 2998,51900 nM (inactive)
same,GI50,HCT-116,43900 nM (inactive)
same,GI50,HCT-15,42500 nM
same,GI50,HL-60,30100 nM (inactive)
same,GI50,HOP-62,> 100000 nM (inactive)
same,GI50,HOP-92,34400 nM (inactive)
same,GI50,HT-29,> 100000 nM (inactive)
same,GI50,Hs-578T,32200 nM (inactive)
same,GI50,IGROV-1,80500 nM (inactive)
same,GI50,K562,33200 nM (inactive)
same,GI50,KM12,40600 nM (inactive)
same,GI50,LOX IMVI,38600 nM (inactive)
same,GI50,M14,19300 nM (inactive)
same,GI50,MCF7,37000 nM (inactive)
same,GI50,MDA-MB-231,20100 nM (inactive)
same,GI50,MDA-MB-435,19600 nM (inactive)
same,GI50,MDA-N,23700 nM (inactive)
same,GI50,MOLT-4,46200 nM (inactive)
same,GI50,Malme-3M,28800 nM (inactive)
same,GI50,NCI-H226,> 100000 nM (inactive)
same,GI50,NCI-H23,66100 nM (inactive)
same,GI50,NCI-H460,> 100000 nM (inactive)
same,GI50,NCI-H522,28200 nM (inactive)
same,GI50,NCI/ADR-RES,59800 nM (inactive)
same,GI50,OVCAR-3,30800 nM (inactive)
same,GI50,OVCAR-4,64600 nM (inactive)
same,GI50,OVCAR-5,> 100000 nM (inactive)
same,GI50,OVCAR-8,35900 nM (inactive)
same,GI50,PC-3,17700 nM (inactive)
same,GI50,RPMI-8226,32500 nM (inactive)
same,GI50,RXF 393,> 100000 nM (inactive)
same,GI50,SF-268,27400 nM (inactive)
same,GI50,SF-295,> 100000 nM (inactive)
same,GI50,SK-MEL-28,92500 nM (inactive)
same,GI50,SK-MEL-2,14900 nM (inactive)
same,GI50,SK-MEL-5,> 100000 nM (inactive)
same,GI50,SK-OV-3,> 100000 nM (inactive)
same,GI50,SN12C,> 100000 nM (inactive)
same,GI50,SNB-19,81300 nM (inactive)
same,GI50,SNB-75,73600 nM (inactive)
same,GI50,SW-620,41200 nM (inactive)
same,GI50,T47D,> 100000 nM (inactive)
same,GI50,TK-10,> 100000 nM (inactive)
same,GI50,U-251,30400 nM (inactive)
same,GI50,UACC-257,> 100000 nM (inactive)
same,GI50,UACC-62,58700 nM (inactive)
same,GI50,UO-31,25100 nM (inactive)
CCN1CCC(O)(/C=C/c2ccc(Cl)c(Cl)c2)C(C(=O)/C=C/c2ccc(Cl)c(Cl)c2)C1 (centres undefined),GI50,786-0,1410 nM (inactive)
same,GI50,A498,891 nM (active)
same,GI50,A549,673 nM (active)
same,GI50,ACHN,1060 nM (active)
same,GI50,BT-549,733 nM (active)
same,GI50,CAKI-1,1820 nM (inactive)
same,GI50,CCRF-CEM,306 nM (active)
same,GI50,COLO 205,705 nM (active)
same,GI50,DU-145,1130 nM (inactive)
same,GI50,EKVX,731 nM (active)
same,GI50,HCC 2998,1710 nM (inactive)
same,GI50,HCT-116,514 nM (active)
same,GI50,HCT-15,1890 nM
same,GI50,HL-60,246 nM (active)
same,GI50,HOP-62,951 nM (active)
same,GI50,HOP-92,621 nM (active)
same,GI50,HT-29,689 nM (active)
same,GI50,Hs-578T,271 nM (active)
same,GI50,IGROV-1,706 nM (active)
same,GI50,K562,324 nM (active)
same,GI50,KM12,713 nM (active)
same,GI50,LOX IMVI,794 nM (active)
same,GI50,M14,733 nM (active)
same,GI50,MCF7,1060 nM (active)
same,GI50,MDA-MB-231,635 nM (active)
same,GI50,MDA-MB-435,877 nM (active)
same,GI50,MDA-N,1550 nM (inactive)
same,GI50,MOLT-4,243 nM (active)
same,GI50,Malme-3M,1050 nM (active)
same,GI50,NCI-H226,1840 nM (inactive)
same,GI50,NCI-H23,255 nM (active)
same,GI50,NCI-H460,760 nM (active)
same,GI50,NCI-H522,948 nM (active)
same,GI50,NCI/ADR-RES,843 nM (active)
same,GI50,OVCAR-3,764 nM (active)
same,GI50,OVCAR-4,632 nM (active)
same,GI50,OVCAR-5,1120 nM (inactive)
same,GI50,OVCAR-8,745 nM (active)
same,GI50,PC-3,329 nM (active)
same,GI50,RPMI-8226,136 nM (active)
same,GI50,RXF 393,1350 nM (inactive)
same,GI50,SF-268,1060 nM (active)
same,GI50,SF-295,713 nM (active)
same,GI50,SF-539,1950 nM (inactive)
same,GI50,SK-MEL-28,881 nM (active)
same,GI50,SK-MEL-2,1040 nM (active)
same,GI50,SK-MEL-5,834 nM (active)
same,GI50,SK-OV-3,1720 nM (inactive)
same,GI50,SN12C,873 nM (active)
same,GI50,SNB-19,1890 nM (inactive)
same,GI50,SNB-75,1010 nM (active)
same,GI50,SW-620,466 nM (active)
same,GI50,T47D,966 nM (active)
same,GI50,TK-10,1320 nM (inactive)
same,GI50,U-251,2110 nM (inactive)
same,GI50,UACC-257,986 nM (active)
same,GI50,UACC-62,973 nM (active)
same,GI50,UO-31,995 nM (active)
